US11026943B2, “Aminoquinoline derivatives and uses thereof” (UNIVERSITY OF DELHI, priority 2012, dated 2021)

Tests used:
[1] = biological target: T1, Nurr1 LBD with SRC-1/SRC-3 (Mus musculus, UniProt Q06219); experiment: Nurr1 LBD transactivation with VP16-SRC1/VP16-SRC3 overexpression; format: cell-based; conditions: 30 μM AQ or 100 μM CQ for 16 hours
T1 construct: The Nurr1 LBD fragment from amino acid position 328 to amino acid position 598 was PCR-amplified; expressed in transfected cells; host or cells: SK-N-BE(2)C human neuroblastoma cells
T1 sequence (Q06219 328-598): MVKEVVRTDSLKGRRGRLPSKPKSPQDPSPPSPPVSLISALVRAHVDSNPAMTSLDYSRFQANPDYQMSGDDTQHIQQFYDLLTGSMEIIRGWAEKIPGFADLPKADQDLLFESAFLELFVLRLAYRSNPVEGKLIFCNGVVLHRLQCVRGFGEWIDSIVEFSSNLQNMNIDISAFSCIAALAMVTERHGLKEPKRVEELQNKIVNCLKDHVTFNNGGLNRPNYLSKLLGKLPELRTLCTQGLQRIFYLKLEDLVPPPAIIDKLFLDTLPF

[2] = biological target: Nurr1 LBD (Mus musculus, UniProt Q06219); experiment: Nurr1 LBD GAL4 reporter assay (pSVGAL(DBD)-N(LBD), p8xGAL-Luc) in SK-N-BE(2)C cells; format: cell-based; conditions: read-out: EC50 Nurr1 LBD-based reporter activity
Sequence of Nurr1 LBD (Q06219 328-598): as above
Description: The pTH2600LUC reporter construct contains the 2.6 kb upstream sequences of the rat tyrosine hydroxylase gene in front of a firefly luciferase gene in pGL3-basic vector. A Nurr1-expression plasmid, pSV40Nurr1, was kindly provided by Dr Orla M. Conneely at Baylor College of Medicine (Houston, Tex., USA). […] The VP16/SRC1 and VP16/SRC3 hybrid were constructed by inserting the transactivation domain of the VP16 protein upstream of SRC1 and SRC3, respectively. […] The recombinant proteins were purified by Ni-NTA column chromatography (Qiagen) according to the manufacturer's instruction. The integrity of all sequences was verified by DNA sequence analyses.
Human neuroblastoma SK-N-BE(2)C cells were maintained in Dulbecco's modified Eagle's medium (DMEM) supplemented with 10% fetal bovine serum. All culture media contained 100 units/ml penicillin and 100 μg/ml streptomycin. For transfection, cells were plated at 1.5×10^5 cells/well in the DMEM media without antibiotic into 24-well plates 1 day prior to transfection. Transfections were carried out by the Lipofectamine plus (Invitrogen) according to the manufacture's protocol. Total DNA amount was 0.5 μg per well with 0.1 μg of pRSV-β-gal as an internal control. 6 hours after transfection, compounds in the DMEM media with 1% charcoal-stripped fetal calf serum was added and incubated overnight. Cells from each well were lysed with 100 μl of lysis buffer, which contains 25 mM Tris-phosphate (pH 7.8), 2 mM DTT, 2 mM CDTA (1,2-diaminocyclohexane-N,N,N′,N′-tetraacetic acid), 10% glycerol, and 1% Triton X-100. Then equal volume of firefly luciferase substrate was added and the luciferase activity was measured using a Luminometer plate reader and normalized for beta-galactosidase activity.

[3] = tested on: Nurr1 recruitment to TH promoter NL1 and NL3; experiment: Chromatin immunoprecipitation in PC12 cells; format: cell-based, rat; conditions: 20 μM AQ or 75 μM CQ for 15 hrs
Description: Error bars represent standard deviations.
Cells were washed with PBS, fixed with 1% formaldehyde, lysed, and sonicated according to the manufacturer's instruction (Active Motif). 25 μg of soluble chromatin DNA were co-immunoprecipitated 1 μg of Nurr1 specific antibody (E-20, Santa Cruz) or control antibody (rabbit IgG, santa Cruz). […] Values are shown as fold induction compared to mock treated control cells.

[4] = tested on: 6-OHDA-lesioned rats; experiment: 6-OHDA-lesioned rat model of PD (amphetamine rotation, TH+ and Iba-1 counts); format: in vivo
Description: Cells were fixed in 4% paraformaldehyde (PFA) for 20 min, washed and then incubated with blocking buffer [PBS, 10% goat serum (Invitrogen), 0.3% Triton X-100 (Sigma)] for 1 hour. Cells were then incubated overnight at 4° C. with primary antibodies with the primary antibody in PBS containing 1% normal goat serum and 0.1% Triton X-100. A rabbit polyclonal anti-TH antibody (1:500; Pel-Freez, Rogers, Ark.) was used as a primary antibody. Following washes with PBS, appropriate fluorescence-tagged secondary antibodies (Jackson Immunoresearch Laboratories, West Grove, Pa.) were used for visualization. Stained samples were mounted in […] with DAPI mounting solution (Vector Laboratories INC., Burlingame, Calif.) and photographed using epifluorescence microscope (Leica). […] The tissues were washed three times in PBS and incubated for 2 h with the secondary fluorescence-conjugated goat anti-mouse and rabbit antibody (DAKO, Denmark, Cy3, FITC, both dilutions at 1:1,000) and tissues were washed and mounted in Vectorshield. […] Tissues were visualized using fluorescence microscopy. […] The protection percentage of total TH^+ cells in the lesioned hemisphere of each rat brain was calculated by dividing total TH^+ cells in the intact hemisphere of each rat brain and multiplying […]. […]

CCN(CC)Cc1cc(Nc2ccnc3cc(Cl)ccc23)ccc1O [AQ, amodiaquine]
Nurr1 transcriptional function with SRC-1/SRC-3 overexpression [1]: further enhanced
EC50 [2]: ~20 µM
Nurr1 recruitment to NL1 and NL3 sites of the TH promoter [3]: recruited to both NL1 and NL3 sites
6-OHDA-induced (amphetamine) rotation behavior ([4]; 4 and 6 weeks post lesion, AQ 20 mg/kg i.p. twice per day, 2 weeks): significantly ameliorated
numbers of Iba-1+ microglia in ipsilateral SN and STR ([4]; after AQ treatment): decreased to the levels of the contralateral sides
